Measurements from patent US20030088061A1, “Materials and methods to modulate ligand binding/enzymatic activity of alpha/beta proteins containing an allosteric regulatory site” (priority 2000, published 2003).

Experiments:
Assay type in all cases: cell-based
Conditions in all cases: PMA-treated JY cells
αMβ2 = target: T1, αMβ2 (Homo sapiens, UniProt P05107+P11215); experiment: JY/αMβ2 cell adhesion to iC3b
T1 construct: expressed in transfected cells; host or cells: JY (human B lymphoblastoid) cells
Protocol: (§1) To assess the selectivity of each compound, an IC50 value was determined for additional binding partner compounds JY/αVβ3 and vitronectin, JY/α4β1 and VCAM/Ig, JY/αdβ2 and VCAM, JY/[…] and ICAM-1, JY/αMβ2 and iC3b, and JY/α4β7 and MAdCAM-1.
(§2) For each IC50 assay, 50 μl of the ligand diluted in 50 mM bicarbonate buffer (pH 9.6) was dispensed per well of an Immulon-4 plate. A single plate was used to test two different ligands, each in triplicate, The coating concentration for the various ligands was as follows: VCAM-1/Ig at 2.0 μg/ml; ICAM-1/Ig at 5.0 μg/ml; vitronectin at 0.5 μg/ml; MAdCAM-1/Ig at 3.0 μg/ml, and iC3b at 5.0 μg/ml. The capture antibody, e.g. anti-CD18 monoclonal antibody TS1/22, was added at a concentration of 10 μg/ml in 50 μl/well. Ligand-coated plates were covered and stored overnight at 4° C. The following day, the contents of each well was decanted, and each plate was washed three times with 200 μl/well D-PBS. The plate was then blocked by the addition of 300 μl/well of 1% BSA/D-PBS solution. Each plate was again covered and incubated at room temperature for at least 1 hour.
Prior to transfer to the adhesion plate, the compounds were initially diluted by transferring 4.2 μl of the diluted compounds to a 96-well deepwell titer plate containing 0.7 ml/well of RPMI 1640, 0.1% BSA, and 3 ng/ml PMA (Sigma Corp., St. Louis, Mo.) pre-warmed to 37° C. The 1% BSA/D-PBS blocking solution was decanted from the 96-well Immulon-4 plates and replaced with 0.2 ml of diluted compound. […]
(§3) The adhesion assay was initiated by addition of 100 μl of the cell suspension to each well of the Immulon-4 plate. […] Adherent cells were quantitated by determining the absorbance at 570 nm in a plate spectrophotometer. The percentage of cell binding was determined by using the mean values for each triplicate in a given assay and the formula below. […]
(§4) The four compounds Cmpd K, Cmpd W, Cmpd Z, Cmpd D identified in the primary screen were selected for further specificity profiling, whereby their IC50 values were determined in additional integrin-dependent adhesive events. […]

αdβ2 = target: T2, αdβ2 (Homo sapiens, UniProt P05107+Q13349); experiment: JY/αdβ2 cell adhesion to VCAM
T2 construct: expressed in transfected cells; host or cells: JY cells, plasmid pMHneo/aD
Protocol: as §1, §2
(§5) Prior to transfer to the adhesion plate, the compounds were initially diluted by transferring 4.2 μl of the diluted compounds to a 96-well deepwell titer plate containing 0.7 ml/well of RPMI 1640, 0.1% BSA, and 3 ng/ml PMA (Sigma Corp., St. Louis, Mo.) pre-warmed to 37° C. The 1% BSA/D-PBS blocking solution was decanted from the 96-well Immulon-4 plates and replaced with 0.2 ml of diluted compound. For each 96-well plate to be screened, approximately 8×10^6 cells were collected by centrifugation and resuspended in adhesion media (RPMI 1640 containing 0.1% BSA) to a final concentration of 10^6/ml. To prevent PMA-dependent homotypic aggregation in the adhesion assay, the anti-CD18 antibody 22F12C (ICOS Corp., Bothell, Wash.) was added to the cell suspensions to a final concentration of 10 μg/ml, and the cells were incubated at 37° C. for 15 min. This antibody was not added to CD18-dependent adhesion assays involving JY/αLβ2, JY/αdβ2 or JY/αMβ2 and their corresponding ligands ICAM-1, VCAM-1, or iC3b.
as §3, §4

αLβ2 = target: T3, αLβ2 (Homo sapiens, UniProt P05107+P20701); experiment: JY/αLβ2 cell adhesion to ICAM-1/Ig
T3 construct: endogenous in cells; host or cells: JY cells
Protocol: as §1, §2, §5, §3, §4

CC(=O)Oc1ccccc1C(=O)n1c(-c2ccccc2)cc2ccccc21 [Cmpd D]
IC50 (αMβ2): 7 µM | IC50 (αdβ2): > 40 µM | IC50 (αLβ2): 28 µM

O=C(NCc1cccnc1)c1ccccc1C(=O)Nc1sc2ccccc2c1Cl [Cmpd K]
IC50 (αMβ2): 4 µM | IC50 (αdβ2): > 40 µM | IC50 (αLβ2): 11 µM

Nc1ccc(Sc2ccc(NC(=O)CCc3ccccc3)cc2)c(Cl)c1 [Cmpd W]
IC50 (αMβ2): 4 µM | IC50 (αdβ2): > 40 µM | IC50 (αLβ2): 30 µM

CC(CN(C)C)NCc1ccccc1Sc1ccc(C(C)(C)C)cc1 (centres unmarked) [Cmpd Z]
IC50 (αdβ2): > 40 µM | IC50 (αLβ2): 20 µM
